The NIST ThermoML archive (doi:10.1021/je800999s)

Assay: molar heat capacity at constant pressure; xn = mol fraction of the nth substance listed
Conditions: 101 kPa, Liquid, Large sample (1 g) DSC

O=CN1CCOCC1 [N-formylmorpholine] + O
molar heat capacity at constant pressure [J/K/mol]
Conditions | x1 = 0.0997 | x1 = 0.1998 | x1 = 0.2992 | x1 = 0.3993 | x1 = 0.4975 | x1 = 0.5978 | x1 = 0.6954 | x1 = 0.7988 | x1 = 0.8946 | x1 = 1
303.15 K | 86 | 98 | 111 | 123 | 134 | 145 | 154 | 164 | 174 | 185
308.15 K | 86 | 99 | 111 | 124 | 135 | 146 | 156 | 166 | 176 | 186
313.15 K | 87 | 100 | 113 | 125 | 137 | 148 | 158 | 168 | 178 | 188
318.15 K | 87 | 100 | 114 | 126 | 138 | 149 | 159 | 169 | 179 | 189
323.15 K | 88 | 101 | 115 | 127 | 140 | 150 | 161 | 171 | 181 | 191
328.15 K | 88 | 102 | 116 | 129 | 141 | 152 | 162 | 173 | 183 | 193
333.15 K | 89 | 103 | 117 | 130 | 142 | 153 | 164 | 174 | 184 | 195
338.15 K | 90 | 104 | 118 | 131 | 144 | 155 | 166 | 176 | 186 | 197
343.15 K | 91 | 106 | 120 | 133 | 146 | 157 | 168 | 178 | 189 | 200
348.15 K | 91 | 107 | 121 | 135 | 147 | 158 | 169 | 180 | 190 | 201
353.15 K | 92 | 107 | 122 | 135 | 148 | 159 | 170 | 181 | 191 | 202
